In patent US10093675B2, “6,8-disubstituted-9-(heterocyclyl)purines, compositions containing these derivatives and their use in cosmetic and medicinal applications” (USTAV EXPERIMENTALNI BOTANIKY AV CR, V.V.I., priority 2014, dated 2018):
Like-named read-outs stand apart in the source and are kept apart here.

What was measured:
[1] = test system: cytokinin-dependent tobacco callus Nicotiana tabacum L. cv. Wisconsin 38; test: Plant cell division: growth of cytokinin-dependent tobacco callus; type: cell-based; conditions: for Activity (%); (s.d.): relative activity at concentration with highest activity, 10^−6 M kinetin set at 100%; for Concentration with highest activity (mol/l): tobacco callus fresh weight increase after four weeks, tested 10^−8 M to 10^−4 M
[2] = test system: normal diploid fibroblasts BJ; test: In vitro cytotoxic activity (Calcein AM), BJ; type: cell-based, human; conditions: 72 hours, read-out: Cell line tested/IC50 (μmol/L) BJ
Outline: (§1)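 Calcein fluorescence, read 1 hour after adding Calcein AM at 1 μg/ml final, measured viability following 72 hours of compound treatment at 37° C. Compounds were tested as six 3-fold dilutions from usually 100 μM in triplicate. GI50 was the concentration reducing conversion by 50%.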

[3] = test system: T-lymphoblastic leukemia cell line CEM; test: In vitro cytotoxic activity (Calcein AM), CEM; type: cell-based, human; conditions: 72 hours, read-out: Cell line tested/IC50 (μmol/L) CEM
Outline: as §1

[4] = test system: erytroid leukemia cell line K-562; test: In vitro cytotoxic activity (Calcein AM), K-562; type: cell-based, human; conditions: read-out: Cell line tested/IC50 (μmol/L) K-562
Outline: as §1

[5] = test system: breast carcinoma cell line MCF-7; test: In vitro cytotoxic activity (Calcein AM), MCF-7; type: cell-based, human; conditions: read-out: Cell line tested/IC50 (μmol/L) MCF7
Outline: as §1

[6] = test system: osteosarcoma cell line HOS; test: In vitro cytotoxic activity (Calcein AM), HOS; type: cell-based, human; conditions: 72 hours, read-out: Cell line tested/IC50 (μmol/L) HOS
Outline: as §1

melanoma cell line G-361 = test: In vitro cytotoxic activity (Calcein AM), G-361; type: cell-based, human; conditions: read-out: Cell line tested/IC50 (μmol/L) G-361
Outline: as §1

[7] = test system: Human diploid fibroblast BJ; test: In vitro cytotoxic activity (MTT); type: cell-based; conditions: 72 hours incubation; concentration causing 20% decrease in mitochondrial dehydrogenase activity
[8] = test system: Salmonella typhimurium histidien auxotrophs TA98 and TA100; test: Ames test; type: cell-based; conditions: 2.5 to 5000 μg/plate; presence and absence of Aroclor-induced rat liver S9
Outline: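 Strains TA98 and TA100 exposed to compounds in DMSO at 2.5, 5.0, 15, 50, 500, 1500 and 5000 μg/plate following standard Ames/Maron protocols.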

SMILES: Fc1ccc(CNc2ncnc3c2nc(Br)n3C2CCCCO2)cc1F (stereo not shown) [Compound 27]
- Activity (%); (s.d.) [1]: 115 (±4) %
- Concentration with highest activity (mol/l) [1]: 10^−6-10^−5 mol/l
- IC50 [2]: > 50 µmol/L
- IC50 [3]: > 50 µmol/L
- IC50 ([4]; 72 hours): > 50 µmol/L
- IC50 ([5]; 72 hours): > 50 µmol/L
- IC50 [6]: > 50 µmol/L
- IC50 (melanoma cell line G-361; 72 hours): > 50 µmol/L
- GI20 [7]: >100 µM
- mutagenic response [8]: no positive mutagenic responses

SMILES: C/C(=C\CNc1ncnc2c1nc(Cl)n2C1CCCO1)CO (stereo not shown) [Compound 64]
- Activity (%); (s.d.) [1]: 130 (±10) %
- Concentration with highest activity (mol/l) [1]: 10^−6-10^−4 mol/l
- IC50 [2]: > 50 µmol/L
- IC50 [3]: > 50 µmol/L
- IC50 ([4]; 72 hours): > 50 µmol/L
- IC50 ([5]; 72 hours): > 50 µmol/L
- IC50 [6]: > 50 µmol/L
- IC50 (melanoma cell line G-361; 72 hours): > 50 µmol/L
- GI20 [7]: >100 µM
- mutagenic response [8]: no positive mutagenic responses

SMILES: CSc1nc2c(NCc3ccco3)ncnc2n1C1CCCCO1 (stereo not shown) [Compound 145, 6-Furfurylamino-8-methylsulfanyl-9-(tetrahydropyran-2-yl)-9H-purine]
- Activity (%); (s.d.) [1]: 103 (±5) %
- IC50 ([2]; Homo sapiens, Fibroblast): > 50 µmol/L
- IC50 ([3]; Homo sapiens): > 50 µmol/L
- IC50 ([4]; Homo sapiens, K562, 72 hours): > 50 µmol/L
- IC50 ([5]; Homo sapiens, MCF7, 72 hours): > 50 µmol/L
- IC50 ([6]; Homo sapiens): > 50 µmol/L
- IC50 (melanoma cell line G-361; Homo sapiens, G-361, 72 hours): > 50 µmol/L
- GI20 [7]: >100 µM
- mutagenic response [8]: no positive mutagenic responses

SMILES: C/C(=C\CNc1ncnc2c1nc(Br)n2C1CCCCO1)CO (stereo not shown) [Compound 24, (E)-8-Bromo-6-(4-hydroxy-3-methylbut-2-en-1-ylamino)-9-(tetrahydropyran-2-yl)-9H-purine]
- Activity (%); (s.d.) [1]: 128 (±8) %
- IC50 ([2]; Homo sapiens, Fibroblast): > 50 µmol/L
- IC50 ([3]; Homo sapiens): > 50 µmol/L
- IC50 ([4]; Homo sapiens, K562, 72 hours): > 50 µmol/L
- IC50 ([5]; Homo sapiens, MCF7, 72 hours): > 50 µmol/L
- IC50 ([6]; Homo sapiens): > 50 µmol/L
- IC50 (melanoma cell line G-361; Homo sapiens, G-361, 72 hours): > 50 µmol/L
- GI20 [7]: >100 µM
- mutagenic response [8]: no positive mutagenic responses

SMILES: COc1cccc(CNc2ncnc3c2nc(Cl)n3C2CCCO2)c1 (stereo not shown) [Compound 69]
- Activity (%); (s.d.) [1]: 111 (±5) %
- Concentration with highest activity (mol/l) [1]: 10^−6-10^−4 mol/l
- IC50 [2]: > 50 µmol/L
- IC50 [3]: > 50 µmol/L
- IC50 ([4]; 72 hours): > 50 µmol/L
- IC50 ([5]; 72 hours): > 50 µmol/L
- IC50 [6]: > 50 µmol/L
- IC50 (melanoma cell line G-361; 72 hours): > 50 µmol/L
- GI20 [7]: >100 µM
- mutagenic response [8]: no positive mutagenic responses

SMILES: Fc1cccc(CNc2ncnc3c2nc(Br)n3C2CCCCO2)c1 (stereo not shown) [Compound 26]
- Activity (%); (s.d.) [1]: 117 (±4) %
- Concentration with highest activity (mol/l) [1]: 10^−6-10^−5 mol/l
- IC50 [2]: > 50 µmol/L
- IC50 [3]: > 50 µmol/L
- IC50 ([4]; 72 hours): > 50 µmol/L
- IC50 ([5]; 72 hours): > 50 µmol/L
- IC50 [6]: > 50 µmol/L
- IC50 (melanoma cell line G-361; 72 hours): > 50 µmol/L
- GI20 [7]: >100 µM
- mutagenic response [8]: no positive mutagenic responses

SMILES: COc1nc2c(NCc3ccco3)ncnc2n1C1CCCCO1 (stereo not shown) [Compound 124, 6-Furfurylamino-8-methoxy-9-(tetrahydropyran-2-yl)-9H-purine]
- Activity (%); (s.d.) [1]: 105 (±2) %
- IC50 ([2]; Homo sapiens, Fibroblast): > 50 µmol/L
- IC50 ([3]; Homo sapiens): > 50 µmol/L
- IC50 ([4]; Homo sapiens, K562, 72 hours): > 50 µmol/L
- IC50 ([5]; Homo sapiens, MCF7, 72 hours): > 50 µmol/L
- IC50 ([6]; Homo sapiens): > 50 µmol/L
- IC50 (melanoma cell line G-361; Homo sapiens, G-361, 72 hours): > 50 µmol/L
- GI20 [7]: >100 µM
- mutagenic response [8]: no positive mutagenic responses
